We go through 17 compounds from ChEMBL document CHEMBL1909046, “DrugMatrix in vitro pharmacology data”.

Each structure is given as a SMILES string.

Assay [1] concerns the target T1, Alpha-2A adrenergic receptor (Homo sapiens, UniProt P08913). Further: in other assays of this panel Not Active means under 50% inhibition at 10 µM.
T1 sequence (P08913 whole entry): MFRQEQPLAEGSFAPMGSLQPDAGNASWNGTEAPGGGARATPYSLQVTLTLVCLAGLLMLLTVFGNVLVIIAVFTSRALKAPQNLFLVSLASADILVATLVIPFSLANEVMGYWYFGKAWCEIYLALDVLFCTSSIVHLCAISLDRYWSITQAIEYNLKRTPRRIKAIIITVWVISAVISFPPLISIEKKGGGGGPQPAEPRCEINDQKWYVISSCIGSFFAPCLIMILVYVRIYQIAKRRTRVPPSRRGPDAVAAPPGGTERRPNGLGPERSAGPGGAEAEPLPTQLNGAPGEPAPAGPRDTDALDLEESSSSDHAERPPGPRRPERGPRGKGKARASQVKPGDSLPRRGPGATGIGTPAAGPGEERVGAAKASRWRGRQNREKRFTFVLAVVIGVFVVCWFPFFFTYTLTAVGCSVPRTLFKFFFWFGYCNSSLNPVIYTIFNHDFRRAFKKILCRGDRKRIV
The format is cell membranes, Sf9, Membrane. The note with it: sf9.

Assay [2] concerns the target 5-hydroxytryptamine receptor 6 (Homo sapiens, UniProt P50406). The format is cell membranes, HeLa, Membrane. The note with it: for Ki: read-out: Ki. On all read-outs here: in other assays of this panel Not Active means under 50% inhibition at 10 µM.
Assay [3] addresses T2, Neuropeptide Y receptor type 1 (Homo sapiens, UniProt P25929).
T2 sequence (P25929 whole entry): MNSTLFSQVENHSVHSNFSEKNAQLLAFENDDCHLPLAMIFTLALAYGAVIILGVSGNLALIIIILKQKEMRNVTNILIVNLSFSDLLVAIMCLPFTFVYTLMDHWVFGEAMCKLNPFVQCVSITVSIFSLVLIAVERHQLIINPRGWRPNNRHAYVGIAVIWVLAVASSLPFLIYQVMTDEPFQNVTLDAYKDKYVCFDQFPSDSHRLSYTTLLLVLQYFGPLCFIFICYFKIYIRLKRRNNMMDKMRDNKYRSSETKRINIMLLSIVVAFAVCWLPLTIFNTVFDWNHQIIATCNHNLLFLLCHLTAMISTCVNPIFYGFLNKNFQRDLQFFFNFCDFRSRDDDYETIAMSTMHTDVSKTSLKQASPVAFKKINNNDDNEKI
The format is cell membranes, Membrane. The note with it: sk-n-mc.

In assay [4] the target is Melanocortin receptor 5 (Homo sapiens, UniProt P33032). The format is cell membranes, HEK293, Membrane. Particulars: hek293. Further: in other assays of this panel Not Active means under 50% inhibition at 10 µM.
Assay [5] in a line: DRUGMATRIX: GABAA, Chloride Channel, TBOB radioligand binding (ligand: [3H] TBOB). The format is cell membranes, Rattus norvegicus, Wistar, Cerebral cortex, Membrane. The note with it: Not Active = under 50% inhibition at 10 µM.
The nature of assay [6]: DRUGMATRIX: Sodium/nucleoside co-transporter radioligand binding (ligand: nitrobenzylthioinosine). The format is cell membranes, Cavia porcellus, Dunkin-Hartley, Cerebral cortex, Membrane. Particulars: Not Active = under 50% inhibition at 10 µM.
For assay [7], the target named is T3, Adenosine receptor A3 (Homo sapiens, UniProt P0DMS8).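 Further: radioligand binding assay with AB-MECA serving as the labeled ligand; in other assays of this panel Not Active means under 50% inhibition at 10 µM.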
T3 sequence (P0DMS8 whole entry): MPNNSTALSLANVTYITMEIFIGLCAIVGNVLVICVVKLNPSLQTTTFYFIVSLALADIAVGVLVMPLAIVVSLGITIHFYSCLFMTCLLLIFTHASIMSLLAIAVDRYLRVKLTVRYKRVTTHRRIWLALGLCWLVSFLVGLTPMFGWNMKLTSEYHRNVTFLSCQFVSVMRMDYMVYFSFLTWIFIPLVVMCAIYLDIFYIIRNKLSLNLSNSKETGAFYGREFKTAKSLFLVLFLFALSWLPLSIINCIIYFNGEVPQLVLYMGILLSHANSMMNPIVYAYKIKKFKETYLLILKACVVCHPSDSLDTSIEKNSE
The format is cell membranes, CHO-K1, Membrane. The note with it: cho-k1.

Chain of Melanocortin receptor 5 (P33032 whole entry): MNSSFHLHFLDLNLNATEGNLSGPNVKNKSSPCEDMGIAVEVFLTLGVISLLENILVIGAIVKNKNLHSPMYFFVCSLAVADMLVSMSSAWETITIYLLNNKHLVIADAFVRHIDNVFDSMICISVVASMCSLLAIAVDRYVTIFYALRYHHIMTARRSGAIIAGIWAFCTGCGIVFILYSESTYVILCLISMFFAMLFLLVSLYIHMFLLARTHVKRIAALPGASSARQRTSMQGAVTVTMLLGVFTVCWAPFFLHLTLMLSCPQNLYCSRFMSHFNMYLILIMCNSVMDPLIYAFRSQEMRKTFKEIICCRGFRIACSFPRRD
Chain of 5-hydroxytryptamine receptor 6 (P50406 whole entry): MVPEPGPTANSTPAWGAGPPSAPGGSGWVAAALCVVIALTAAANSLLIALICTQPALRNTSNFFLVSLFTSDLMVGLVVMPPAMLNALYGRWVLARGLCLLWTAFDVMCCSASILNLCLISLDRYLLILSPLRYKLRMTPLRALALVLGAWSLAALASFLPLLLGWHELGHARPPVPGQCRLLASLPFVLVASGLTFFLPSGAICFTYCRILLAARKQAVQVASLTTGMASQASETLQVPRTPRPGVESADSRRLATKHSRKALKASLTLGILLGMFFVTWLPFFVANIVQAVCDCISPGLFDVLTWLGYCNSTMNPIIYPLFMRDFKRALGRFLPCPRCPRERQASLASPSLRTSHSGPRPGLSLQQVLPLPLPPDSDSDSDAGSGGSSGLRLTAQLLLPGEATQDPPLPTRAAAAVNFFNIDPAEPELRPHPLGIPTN

The term IC50 denotes the concentration at which inhibition is half-maximal. By Ki is commonly meant a measure of affinity in units of concentration, obtained from inhibition or displacement. As to `Nn1nnc2ccccc21`, the IC50 result in assay [1], in assay [2] (hela), in assay [3], in assay [4], in assay [5] and in assay [6] was “Not Active” in each case. In addition, the IC50 entry in assay [7] is given as “Not Active”. The Ki entry in assay [5] and in assay [6] was “Not Active” in each case.

On to `CC[C@]1(O)CC[C@H]2[C@@H]3CCC4=CCCC[C@@H]4[C@H]3CC[C@@]21C`, for which the IC50 result in assay [1], in assay [2] (hela), in assay [3], in assay [4], in assay [5] and in assay [6] was “Not Active” throughout. Further, in assay [7], the IC50 entry is recorded as “Not Active”. For the same compound, the Ki entry in assay [5] and in assay [6] was “Not Active” throughout.

On to `N[C@@H](Cc1ccc(F)cc1)C(=O)O`, for which the IC50 result in assay [1], in assay [2] (hela), in assay [3], in assay [4], in assay [5] and in assay [6] was “Not Active” throughout. Also, the IC50 entry in assay [7] is “Not Active”. In addition, the Ki result in assay [5] and in assay [6] was “Not Active” each time.

In the case of `CCOC(=O)[C@H](CCc1ccccc1)N[C@@H](C)C(=O)N1Cc2ccccc2C[C@H]1C(=O)O`, the IC50 result in assay [1], in assay [2] (hela), in assay [3], in assay [4], in assay [5] and in assay [6] was “Not Active” each time. Besides, the IC50 entry in assay [7] was “Not Active”. The Ki result in assay [5] and in assay [6] was “Not Active” in each case.

For the compound `O=C(c1ccccc1Cl)N1CCC(Cc2ccccc2)CC1`, the IC50 result in assay [1], in assay [2] (hela), in assay [3], in assay [4], in assay [5] and in assay [6] was “Not Active” in each case. Further, in assay [7], the half-maximal inhibitory concentration (IC50) entry is given as “Not Active”. For the same compound, the Ki entry in assay [5] and in assay [6] was “Not Active” in each case.

For the compound `CCOC(=O)[C@H](CCc1ccccc1)N[C@@H](C)C(=O)N1CCC[C@H]1C(=O)O`, the IC50 result in assay [1], in assay [2] (hela), in assay [3], in assay [4], in assay [5] and in assay [6] was “Not Active” each time. Besides, the IC50 result in assay [7] was “Not Active”. The Ki result in assay [5] and in assay [6] was “Not Active” in each case.

For `Clc1cc2c(cc1Cl)Oc1cc(Cl)c(Cl)cc1O2` [2,3,7,8-TETRACHLORODIBENZO-P-DIOXIN], the IC50 entry in assay [1], in assay [2] (hela), in assay [3], in assay [4], in assay [5] and in assay [6] was “Not Active” throughout. For the same compound, the IC50 entry in assay [7] is on record as “Not Active”. For the same compound, the Ki entry in assay [5] and in assay [6] was “Not Active” throughout.

Regarding `C=C1/C(=C\C=C2/CCC[C@]3(C)[C@@H]([C@H](C)CCCC(C)C)CC[C@@H]23)C[C@@H](O)C[C@@H]1O` [ALFACALCIDOL], the IC50 entry in assay [1], in assay [2] (hela), in assay [3], in assay [4], in assay [5] and in assay [6] was “Not Active” throughout. In addition, the IC50 entry in assay [7] was “Not Active”. In addition, the Ki result in assay [5] and in assay [6] was “Not Active” throughout.

Consider `CCCCCC[C@H]1C(=O)O[C@H](C)[C@H](NC(=O)c2cccc(NC=O)c2O)C(=O)O[C@@H](C)[C@@H]1OC(=O)CC(C)C` [ANTIMYCIN A], for which the IC50 entry in assay [1], in assay [2] (hela), in assay [3], in assay [4], in assay [5] and in assay [6] was “Not Active” throughout. In addition, the IC50 entry in assay [7] was “Not Active”. Besides, the Ki result in assay [5] and in assay [6] was “Not Active” each time.

With `C[C@@H]1CC[C@H]2[C@@H](C)C(=O)O[C@@H]3O[C@@]4(C)CC[C@@H]1[C@]32OO4` [ARTEMISININ], the IC50 entry in assay [1], in assay [2] (hela), in assay [3], in assay [4], in assay [5] and in assay [6] was “Not Active” throughout. The IC50 entry in assay [7] was “Not Active”. Further, the Ki entry in assay [5] and in assay [6] was “Not Active” throughout.

Take `CO[C@H]1[C@@H](O)[C@H](N)[C@@H](O[C@H]2O[C@H]([C@H](C)N)CC[C@H]2N)[C@H](O)[C@@H]1N(C)C(=O)CN` [ASTROMICIN]: the IC50 entry in assay [1], in assay [2] (hela), in assay [3], in assay [4], in assay [5] and in assay [6] was “Not Active” in each case. Also, the IC50 entry in assay [7] is “Not Active”. Also, the Ki result in assay [5] and in assay [6] was “Not Active” each time.

As for `[N-]=[N+]=CC(=O)OC[C@H](N)C(=O)O` [AZASERINE], the IC50 result in assay [1], in assay [2] (hela), in assay [3], in assay [4], in assay [5] and in assay [6] was “Not Active” each time. The IC50 entry in assay [7] is given as “Not Active”. Further, the inhibition constant (Ki) result in assay [5] and in assay [6] was “Not Active” throughout.

Regarding `CC[C@H]1OC(=O)[C@H](C)[C@@H](O[C@H]2C[C@@](C)(OC)[C@@H](O)[C@H](C)O2)[C@H](C)[C@@H](O[C@@H]2O[C@H](C)C[C@H](N(C)C)[C@H]2O)[C@](C)(O)C[C@@H](C)CN(C)[C@H](C)[C@@H](O)[C@]1(C)O` [AZITHROMYCIN], the IC50 entry in assay [1], in assay [2] (hela), in assay [3], in assay [4], in assay [5] and in assay [6] was “Not Active” in each case. In assay [7], the IC50 result is given as “Not Active”. Besides, the Ki entry in assay [5] and in assay [6] was “Not Active” throughout.

With `CC(C)(C)c1ccc(S(=O)(=O)/C=C/C#N)cc1` [BAY-11-7085], the IC50 result in assay [1], in assay [2] (hela), in assay [3], in assay [4], in assay [5] and in assay [6] was “Not Active” in each case. Further, the IC50 entry in assay [7] was “Not Active”. For the same compound, the Ki result in assay [5] and in assay [6] was “Not Active” throughout.

For the compound `CC(C)C[C@H]1C(=O)N2CCC[C@H]2[C@]2(O)O[C@](NC(=O)[C@@H]3C=C4c5cccc6[nH]c(Br)c(c56)C[C@H]4N(C)C3)(C(C)C)C(=O)N12` [BROMOCRIPTINE], the IC50 was 22 nM in assay [2] (read-out: IC50); “Not Active” in assay [3]; “Not Active” in assay [4]; “Not Active” in assay [5]; “Not Active” in assay [6]; “Not Active” in assay [7]. The Ki is 10 nM in assay [2], “Not Active” in assay [5] and “Not Active” in assay [6].

`CN1C[C@H](C(=O)N[C@]2(C)O[C@@]3(O)[C@@H]4CCCN4C(=O)[C@H](Cc4ccccc4)N3C2=O)C[C@@H]2c3cccc4[nH]cc(c34)C[C@H]21` [DIHYDROERGOTAMINE]: the IC50 in assay [2] (read-out: IC50) was 3.2 nM; in assay [3], “Not Active”; in assay [4], “Not Active”; in assay [5] it was “Not Active”; in assay [6], “Not Active”; in assay [7] it was “Not Active”. Further, the inhibitory constant (Ki) was 1.49 nM in assay [2], “Not Active” in assay [5] and “Not Active” in assay [6].

Consider `N=C(N)N/N=C/c1c(Cl)cccc1Cl` [GUANABENZ], for which the IC50 entry in assay [2] (hela), in assay [3], in assay [4], in assay [5], in assay [6] and in assay [7] was “Not Active” in each case. For the same compound, the Ki entry in assay [5] and in assay [6] was “Not Active” throughout.
